Laboratory results reported in ChEMBL document CHEMBL6096697, “Structure-Guided Discovery of Novel N4-(Substituted Thiazol-2-yl)-N2-(4-Substituted phenyl)pyrimidine-2,4-Diamines as Potent CDK2 and CDK9 Dual Inhibitors with High Oral Bioavailability” (J Med Chem, 2025).
Calls of active or inactive are those of the source. The rule behind the calls is not given here.

Assays:
HCT-116 [1] = assay: Induction of cell cycle arrest in human HCT-116 cells assessed as accumulation at G1/G0 phase at 0.2 uM incubated for 24 hrs by PI staining based flow cytometry (reference value: 58.29 +/- 2.01 %); type: functional
HeLa [2] = assay: Induction of cell cycle arrest in human HeLa cells assessed as accumulation at sub-G1 phase at 3.6 uM incubated for 24 hrs by PI staining based flow cytometry (reference value: 1.89 +/- 0.56 %); type: functional
[3] = MRT (0 to t) in Sprague-Dawley rat at 2 mg/kg, iv measured for 36 hrs by MRM analysis; type: ADME, organism-based; conditions: in vivo
HeLa [4] = assay: Induction of apoptosis in human HeLa cells assessed as necrotic cells at 3.6 uM incubated for 24 hrs by PI staining based flow cytometry (reference value: 25.5 %); type: functional
HeLa [5] = assay: Induction of apoptosis in human HeLa cells assessed as increase in p53 level upto 3.6 uM incubated for 24 hrs by Western blot analysis; type: functional, cell-based
HeLa [6] = assay: Induction of cell cycle arrest in human HeLa cells assessed as accumulation at S phase at 3.6 uM incubated for 24 hrs by PI staining based flow cytometry (reference value: 17.84 +/- 1.89 %); type: functional
HCT-116 [7] = assay: Antitumor activity against human HCT-116 cells xenografted in Balb/c-nu nude mouse at 70 mg/kg/day, po treated for 7 days consecutively relative to control; type: functional; conditions: HCT-116, 168 h, time 7 day, read-out: TGI
[8] = Oral bioavailability in Sprague-Dawley rat at 10 mg/kg measured for 36 hrs by MRM analysis; type: ADME, organism-based; conditions: in vivo
[9] = Tmax in Sprague-Dawley rat at 2 mg/kg, iv measured for 36 hrs by MRM analysis; type: ADME, organism-based; conditions: in vivo
[10] = biological target: Cyclin-dependent kinase 7/ cyclin H (Homo sapiens, UniProt P50613); assay: Inhibition of CDK7/cyclin H (unknown origin) using […] incubated for 40 mins in presence of ATP by Kinase-Glo assay; type: protein-complex assay
Cyclin-dependent kinase 7/ cyclin H, sequence (P51946 whole entry): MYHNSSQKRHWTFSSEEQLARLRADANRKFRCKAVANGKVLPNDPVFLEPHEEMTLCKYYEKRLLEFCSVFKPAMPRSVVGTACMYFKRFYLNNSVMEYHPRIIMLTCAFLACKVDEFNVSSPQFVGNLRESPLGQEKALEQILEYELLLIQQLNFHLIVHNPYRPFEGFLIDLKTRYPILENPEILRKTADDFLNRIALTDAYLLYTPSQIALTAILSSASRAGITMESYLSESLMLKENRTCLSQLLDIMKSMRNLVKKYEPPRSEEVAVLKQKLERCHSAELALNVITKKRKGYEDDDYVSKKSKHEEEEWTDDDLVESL
Cyclin-dependent kinase 7/ cyclin H, sequence (P50613 whole entry): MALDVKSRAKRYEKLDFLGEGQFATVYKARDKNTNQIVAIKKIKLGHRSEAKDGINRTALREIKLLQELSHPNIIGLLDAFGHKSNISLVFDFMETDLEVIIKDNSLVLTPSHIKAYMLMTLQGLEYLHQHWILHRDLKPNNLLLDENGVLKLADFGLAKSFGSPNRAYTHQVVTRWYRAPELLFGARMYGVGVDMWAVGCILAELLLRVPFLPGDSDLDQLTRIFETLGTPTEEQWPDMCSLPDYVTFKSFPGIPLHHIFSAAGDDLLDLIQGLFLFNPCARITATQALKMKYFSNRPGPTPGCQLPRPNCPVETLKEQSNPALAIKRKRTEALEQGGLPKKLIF

HCT-116 [11] = assay: Effect on Bax level in human HCT-116 cells upto 0.8 uM incubated for 24 hrs by Western blot analysis; type: functional, cell-based
HeLa [12] = assay: Induction of cell cycle arrest in human HeLa cells assessed as accumulation at S phase at 0.9 uM incubated for 24 hrs by PI staining based flow cytometry (reference value: 17.84 +/- 1.89 %); type: functional
HCT-116 [13] = assay: Induction of apoptosis in human HCT-116 cells assessed as viable cells at 0.8 uM incubated for 24 hrs by PI staining based flow cytometry (reference value: 79.4 %); type: functional; conditions: read-out: Activity
HCT-116 [14] = assay: Induction of cell cycle arrest in human HCT-116 cells assessed as accumulation at G1/G0 phase at 0.4 uM incubated for 24 hrs by PI staining based flow cytometry (reference value: 58.29 +/- 2.01 %); type: functional
[15] = AUC (0 to t) in Sprague-Dawley rat at 10 mg/kg, po measured for 36 hrs by MRM analysis; type: ADME, organism-based; conditions: in vivo
HCT-116 [16] = assay: Induction of apoptosis in human HCT-116 cells assessed as late apoptotic cells at 0.4 uM incubated for 24 hrs by PI staining based flow cytometry (reference value: 1.11 %); type: functional
HeLa [17] = assay: Induction of cell cycle arrest in human HeLa cells assessed as accumulation at sub-G1 phase at 0.9 uM incubated for 24 hrs by PI staining based flow cytometry (reference value: 1.89 +/- 0.56 %); type: functional
[18] = Inhibition of CDK9/cyclin T (unknown origin) using […] incubated for 40 mins in presence of ATP by Kinase-Glo assay; design: species or system Homo sapiens
HCT-116 [19] = assay: Induction of cell cycle arrest in human HCT-116 cells assessed as accumulation at sub-G1 phase at 0.4 uM incubated for 24 hrs by PI staining based flow cytometry (reference value: 2.45 +/- 0.49 %); type: functional
HeLa [20] = assay: Induction of cell cycle arrest at G2/M phase in human HeLa cells assessed as decrease in cyclin B1 level at 1.8 uM by Western blot analysis; type: functional, cell-based; conditions: time <= 48.0 hrs
HT-29 = assay: Antiproliferative activity against human HT-29 cells assessed as cell growth inhibition incubated for 48 hrs by MTT assay; type: functional, cell-based; conditions: HT-29, 48 h
HCT-116 [21] = assay: Induction of apoptosis in human HCT-116 cells assessed as decrease in Bcl-2 level upto 0.8 uM incubated for 24 hrs by Western blot analysis; type: functional, cell-based
HCT-116 [22] = assay: Induction of cell cycle arrest in human HCT-116 cells assessed as accumulation at S phase at 0.8 uM incubated for 24 hrs by PI staining based flow cytometry (reference value: 20.82 +/- 1.24 %); type: functional
HeLa [23] = assay: Induction of apoptosis in human HeLa cells assessed as total apoptotic cells at 3.6 uM incubated for 24 hrs by PI staining based flow cytometry (reference value: 4.65 %); type: functional
[24] = Cmax in Sprague-Dawley rat at 2 mg/kg, iv measured for 36 hrs by MRM analysis; type: ADME, organism-based; conditions: in vivo
[25] = Tmax in Sprague-Dawley rat at 10 mg/kg, po measured for 36 hrs by MRM analysis; type: ADME, organism-based; conditions: in vivo
HeLa [26] = assay: Induction of apoptosis in human HeLa cells assessed as late apoptotic cells at 0.9 uM incubated for 24 hrs by PI staining based flow cytometry (reference value: 3.85 %); type: functional
HeLa [27] = assay: Induction of apoptosis in human HeLa cells assessed as decrease in Bcl-2 level upto 3.6 uM incubated for 24 hrs by Western blot analysis; type: functional, cell-based
HeLa [28] = assay: Induction of cell cycle arrest in human HeLa cells assessed as accumulation at G2/M phase at 1.8 uM incubated for 24 hrs by PI staining based flow cytometry (reference value: 24.6 +/- 1.11 %); type: functional
HeLa [29] = assay: Induction of cell cycle arrest in human HeLa cells assessed as accumulation at G2/M phase at 0.9 uM incubated for 24 hrs by PI staining based flow cytometry (reference value: 24.6 +/- 1.11 %); type: functional
[30] = MRT (0 to infinity) in Sprague-Dawley rat at 10 mg/kg, po measured for 36 hrs by MRM analysis; type: ADME, organism-based; conditions: in vivo
[31] = Cmax in Sprague-Dawley rat at 10 mg/kg, po measured for 36 hrs by MRM analysis; type: ADME, organism-based; conditions: in vivo
[32] = Inhibition of CDK6/cyclin D (unknown origin) using […] incubated for 40 mins in presence of ATP by Kinase-Glo assay; design: species or system Homo sapiens
HeLa [33] = assay: Induction of apoptosis in human HeLa cells assessed as viable cells at 0.9 uM incubated for 24 hrs by PI staining based flow cytometry (reference value: 68.9 %); type: functional; conditions: read-out: Activity
[34] = Antiproliferative activity against HEK293 cells assessed as cell growth inhibition incubated for 48 hrs by MTT assay; type: toxicity, cell-based; conditions: human
[35] = biological target: Cyclin-dependent kinase 2 (Homo sapiens) (UniProt P24941); assay: Inhibition of CDK2 in human HCT-116 cells assessed as reduction in Rb phosphorylation at Ser780 incubated for 24 hr s by Western blot analysis; type: cell-based; conditions: dose <= 0.8 µM
MCF7 = assay: Antiproliferative activity against human MCF7 cells assessed as cell growth inhibition incubated for 48 hrs by MTT assay; type: functional, cell-based; conditions: MCF7, 48 h

MRT last at 36 h [3]: 2.7 h | bioavailability [8]: 86.7% | Tmax [9]: 0.2 h | IC50 [10]: 0.215 µM | AUC(0-t) at 36 h [15]: 143 ng·h/mL | IC50 [18]: 0.009 µM | IC50 (HT-29): 3.62 µM | Cmax [24]: 29.1 ng/mL | Tmax [25]: 0.5 h | MRT inf [30]: 7 h | Cmax [31]: 21.1 ng/mL | IC50 [32]: 3.25 µM | inhibition [35]: Dose-dependent-effect | IC50 (MCF7): 3.64 µM
SMILES: Cc1cnc(Nc2ccc(S(N)(=O)=O)cc2)nc1Nc1nccs1
Activity (HCT-116 [1]): 51.83% | Activity (HeLa [2]): 19.5% | Activity (HeLa [4]): 0.72% | Activity (HeLa [5]): Active | Activity (HeLa [6]): 17.55% | inhibition in vivo at 70 mg/kg/day (HCT-116 [7]): 67% | Activity (HCT-116 [11]): No effect | Activity (HeLa [12]): 21.67% | viability at 0.8 µM (HCT-116 [13]): 52.8% | Activity (HCT-116 [14]): 44.9% | Activity (HCT-116 [16]): 22.9% | Activity (HeLa [17]): 1.81% | Activity (HCT-116 [19]): 1.91% | Activity (HeLa [20]): Time-dependent-effect | Activity (HCT-116 [21]): Active | Activity (HCT-116 [22]): 20.18% | Activity (HeLa [23]): 88.3% | Activity (HeLa [26]): 5% | Activity (HeLa [27]): Active | Activity (HeLa [28]): 30.58% | Activity (HeLa [29]): 26.41% | viability at 0.9 µM (HeLa [33]): 29.1% | IC50 at 48 h [34]: 90.1 µM
